The values that follow come from patent US20190367516A1 (Bayer Pharma Aktiengesellschaft, priority 2015, published 2019).

The target in the test is T1, human M2 receptor (Homo sapiens, UniProt P08172).
T1 sequence (P08172 1-466): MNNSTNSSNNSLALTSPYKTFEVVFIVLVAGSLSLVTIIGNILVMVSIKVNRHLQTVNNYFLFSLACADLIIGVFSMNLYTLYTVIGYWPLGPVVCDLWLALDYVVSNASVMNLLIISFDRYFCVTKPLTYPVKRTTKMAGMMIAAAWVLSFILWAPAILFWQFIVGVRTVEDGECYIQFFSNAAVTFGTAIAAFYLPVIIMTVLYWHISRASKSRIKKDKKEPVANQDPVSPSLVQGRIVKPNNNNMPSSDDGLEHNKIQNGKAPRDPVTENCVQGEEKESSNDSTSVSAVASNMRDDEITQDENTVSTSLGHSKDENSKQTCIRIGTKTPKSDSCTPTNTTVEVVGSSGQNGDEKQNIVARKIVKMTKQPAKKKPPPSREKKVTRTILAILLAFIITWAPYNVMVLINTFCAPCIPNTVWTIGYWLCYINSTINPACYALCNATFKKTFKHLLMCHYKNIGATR
To be noted: Receptor activity EC50, M2-GIRK1/4 activation test, acetylcholine at EC20; allosteric potency; in some cases mean values from two or more determinations.
What is called EC50 is the concentration at which the effect is half-maximal. Low readings indicate greater potency, high ones weaker potency. The compound `CC[C@@H](NC(=O)c1cn(-c2ccc(F)cc2F)c2nc(N3CCC(O)(O)C(F)C3)ccc2c1=O)C(F)(F)F` (mixture of isomers) [Example 34, 1-(2,4-Difluorophenyl)-7-[3-fluoro-4,4-dihydroxypiperidin-1-yl]-4-oxo-N-[(2R)-1,1,1-trifluorobutan-2-yl]-1,4-dihydro-1,8-naphthyridine-3-carboxamide (diastereomer mixture)] had a half-maximal effective concentration (EC50) of 95 nM. In other words, the double-digit nanomolar range. The result for `O=C(NC1(C(F)(F)F)CCOC1)c1cn(-c2ccc(F)cc2F)c2nc(N3C[C@@H](O)CC3=O)ccc2c1=O` (mixture of isomers) [Example 238, 1-(2,4-Difluorophenyl)-7-[(4S)-4-hydroxy-2-oxopyrrolidin-1-yl]-4-oxo-N-[3-(trifluoromethyl)tetrahydrofuran-3-yl]-1,4-dihydro-1,8-naphthyridine-3-carboxamide] reads 1640 nM. The result for `CC[C@@H](NC(=O)c1cn(-c2ccc(F)cc2F)c2nc(N3CC(C)OC3=O)ccc2c1=O)C(F)(F)F` (mixture of isomers) [Example 266, 1-(2,4-Difluorophenyl)-7-[5-methyl-2-oxo-1,3-oxazolidin-3-yl]-4-oxo-N-[(2R)-1,1,1-trifluorobutan-2-yl]-1,4-dihydro-1,8-naphthyridine-3-carboxamide] reads 743 nM.

Compound `O=C(NC(c1ccc(F)cc1)C(F)(F)F)c1cn(-c2ccc(F)cc2F)c2nc(N3C[C@@H](O)CC3=O)ccc2c1=O` (mixture of isomers) [Example 273, 1-(2,4-Difluorophenyl)-7-[(4S)-4-hydroxy-2-oxopyrrolidin-1-yl]-4-oxo-N-[2,2,2-trifluoro-1-(4-fluorophenyl)ethyl]-1,4-dihydro-1,8-naphthyridine-3-carboxamide] yielded a concentration giving a half-maximal response (EC50) of 44 nM. Under `O=C(NC(c1cccc(Cl)c1)C(F)(F)F)c1cn(-c2ccc(F)cc2F)c2nc(N3C[C@@H](O)CC3=O)ccc2c1=O` (mixture of isomers) [Example 274, N-[1-(3-Chlorophenyl)-2,2,2-trifluoroethyl]-1-(2,4-difluorophenyl)-7-[(4S)-4-hydroxy-2-oxopyrrolidin-1-yl]-4-oxo-1,4-dihydro-1,8-naphthyridine-3-carboxamide] stands 49 nM; under `O=C(NC12CC3CC(CC(C3)C1)C2)c1cn(-c2ccc(F)cc2F)c2nc(N3CCCC(O)C3)ccc2c1=O` (racemic) [Example 14, rac-1-(2,4-Difluorophenyl)-7-(3-hydroxypiperidin-1-yl)-4-oxo-N-(tricyclo[3.3.1.1^3,7]dec-1-yl)-1,4-dihydro-1,8-naphthyridine-3-carboxamide], 82 nM; under `CCC(NC(=O)c1cn(-c2ccc(F)cc2F)c2nc(N3CC(CO)C3)ccc2c1=O)C(F)(F)F` (racemic) [Example 26, rac-1-(2,4-Difluorophenyl)-7-[3-(hydroxymethyl)azetidin-1-yl]-4-oxo-N-[1,1,1-trifluorobutan-2-yl]-1,4-dihydro-1,8-naphthyridine-3-carboxamide], 164 nM. Under `CC(CC(F)(F)F)NC(=O)c1cn(-c2ccc(F)cc2F)c2nc(N(C)C)ccc2c1=O` (racemic) [Example 46, rac-1-(2,4-Difluorophenyl)-7-(dimethylamino)-4-oxo-N-[4,4,4-trifluorobutan-2-yl]-1,4-dihydro-1,8-naphthyridine-3-carboxamide] stands 127 nM.

The compound `CN(C)c1ccc2c(=O)c(C(=O)NC(c3ccccc3Cl)C(F)(F)F)cn(-c3ccc(F)cc3F)c2n1` (racemic) [Example 48, rac-N-[1-(2-Chlorophenyl)-2,2,2-trifluoroethyl]-1-(2,4-difluorophenyl)-7-(dimethylamino)-4-oxo-1,4-dihydro-1,8-naphthyridine-3-carboxamide] had a 50% effective concentration (EC50) of 110 nM. Under `CCC(NC(=O)c1cn(-c2ccc(F)cc2F)c2nc(N3CCC(F)(F)C3)ccc2c1=O)C(F)(F)F` (racemic) [Example 74, rac-1-(2,4-Difluorophenyl)-7-(3,3-difluoropyrrolidin-1-yl)-4-oxo-N-[1,1,1-trifluorobutan-2-yl]-1,4-dihydro-1,8-naphthyridine-3-carboxamide] stands 58 nM; under `CCCC(NC(=O)c1cn(-c2ccc(F)cc2F)c2nc(N3CCC(F)(F)C3)ccc2c1=O)C(F)(F)F` (racemic) [Example 76, rac-1-(2,4-Difluorophenyl)-7-(3,3-difluoropyrrolidin-1-yl)-4-oxo-N-[1,1,1-trifluoropentan-2-yl]-1,4-dihydro-1,8-naphthyridine-3-carboxamide], 69 nM. The result for `CCCC(NC(=O)c1cn(-c2ccc(F)cc2F)c2nc(NCCF)ccc2c1=O)C(F)(F)F` (racemic) [Example 86, rac-1-(2,4-Difluorophenyl)-7-[(2-fluoroethyl)amino]-4-oxo-N-[(2R)-1,1,1-trifluoropentan-2-yl]-1,4-dihydro-1,8-naphthyridine-3-carboxamide] reads 108 nM; that for `CC(C)CC(NC(=O)c1cn(-c2ccc(F)cc2F)c2nc(NCC(F)(F)F)ccc2c1=O)C(F)(F)F` (racemic) [Example 95, rac-1-(2,4-Difluorophenyl)-4-oxo-7-[(2,2,2-trifluoroethyl)amino]-N-[1,1,1-trifluoro-4-methylpentan-2-yl]-1,4-dihydro-1,8-naphthyridine-3-carboxamide], 144 nM; that for `CC(NC(=O)c1cn(-c2ccc(F)cc2F)c2nc(N(C)CC(F)(F)F)ccc2c1=O)C(F)(F)F` (racemic) [Example 99, rac-1-(2,4-Difluorophenyl)-7-[methyl(2,2,2-trifluoroethyl)amino]-4-oxo-N-[1,1,1-trifluoropropan-2-yl]-1,4-dihydro-1,8-naphthyridine-3-carboxamide], 182 nM. Under `CCC(NC(=O)c1cn(-c2ccc(F)cc2F)c2nc(N(C)CC(F)(F)F)ccc2c1=O)C(F)(F)F` (racemic) [Example 100] stands 143 nM; under `CC(NC(=O)c1cn(-c2ccc(F)cc2F)c2nc(N(C)CCF)ccc2c1=O)C(F)(F)F` (racemic) [Example 105, rac-1-(2,4-Difluorophenyl)-7-[(2-fluoroethyl)(methyl)amino]-4-oxo-N-[1,1,1-trifluoropropan-2-yl]-1,4-dihydro-1,8-naphthyridine-3-carboxamide], 146 nM; under `CC(NC(=O)c1cn(-c2ccc(F)cc2F)c2nc(N(C)CC(F)F)ccc2c1=O)C(F)(F)F` (racemic) [Example 113, rac-7-[(2,2-Difluoroethyl)(methyl)amino]-1-(2,4-difluorophenyl)-4-oxo-N-[1,1,1-trifluoropropan-2-yl]-1,4-dihydro-1,8-naphthyridine-3-carboxamide], 141 nM. Compound `CCC(NC(=O)c1cn(-c2ccc(F)cc2F)c2nc(N(C)CC(F)F)ccc2c1=O)C(F)(F)F` (racemic) [Example 114, rac-7-[(2,2-Difluoroethyl)(methyl)amino]-1-(2,4-difluorophenyl)-4-oxo-N-[1,1,1-trifluorobutan-2-yl]-1,4-dihydro-1,8-naphthyridine-3-carboxamide] returned an EC50 of 98 nM. This EC50 and that of the compound before are within 1.5-fold of each other. The result for `O=C(NC12CC3CC(CC(C3)C1)C2)c1cn(-c2ccc(F)cc2F)c2nc(N3CCOC(CO)C3)ccc2c1=O` (racemic) [Example 118, rac-1-(2,4-Difluorophenyl)-7-[2-(hydroxymethyl)morpholin-4-yl]-4-oxo-N-(tricyclo[3.3.1.1^3,7]dec-1-yl)-1,4-dihydro-1,8-naphthyridine-3-carboxamide] reads 91 nM; that for `CC1(O)CCCN(c2ccc3c(=O)c(C(=O)NC45CC6CC(CC(C6)C4)C5)cn(-c4ccc(F)cc4F)c3n2)C1` (racemic) [Example 119, rac-1-(2,4-Difluorophenyl)-7-(3-hydroxy-3-methylpiperidin-1-yl)-4-oxo-N-(tricyclo[3.3.1.1^3,7]dec-1-yl)-1,4-dihydro-1,8-naphthyridine-3-carboxamide], 90 nM; that for `CCC(NC(=O)c1cn(-c2ccc(F)cc2F)c2nc(NCC(F)F)ccc2c1=O)C(F)(F)F` (racemic) [Example 122, rac-7-[(2,2-Difluoroethyl)amino]-1-(2,4-difluorophenyl)-4-oxo-N-[1,1,1-trifluorobutan-2-yl]-1,4-dihydro-1,8-naphthyridine-3-carboxamide], 94 nM. Take `CC(C)CC(NC(=O)c1cn(-c2ccc(F)cc2F)c2nc(NCC(F)F)ccc2c1=O)C(F)(F)F` (racemic) [Example 125, rac-7-[(2,2-Difluoroethyl)amino]-1-(2,4-difluorophenyl)-4-oxo-N-[1,1,1-trifluoro-4-methylpentan-2-yl]-1,4-dihydro-1,8-naphthyridine-3-carboxamide]: the 50% effective concentration (EC50) is 116 nM. `Cc1cccc(C(NC(=O)c2cn(-c3ccc(F)cc3F)c3nc(N(C)C)ccc3c2=O)C(F)(F)F)c1` (racemic) [Example 138, rac-1-(2,4-Difluorophenyl)-7-(dimethylamino)-4-oxo-N-[2,2,2-trifluoro-1-(3-methylphenyl)ethyl]-1,4-dihydro-1,8-naphthyridine-3-carboxamide] gave a concentration giving a half-maximal response (EC50) of 68 nM. The result for `CN(C)c1ccc2c(=O)c(C(=O)NC(c3ccc(F)cc3)C(F)(F)F)cn(-c3ccc(F)cc3F)c2n1` (racemic) [Example 139, rac-1-(2,4-Difluorophenyl)-7-(dimethylamino)-4-oxo-N-[2,2,2-trifluoro-1-(4-fluorophenyl)ethyl]-1,4-dihydro-1,8-naphthyridine-3-carboxamide] reads 65 nM.
